Data published in article PMC12467033, “Exploring the Inhibitory Potential of Six Porphyrin Compounds Against α-Amylase and α-Glucosidase Linked to Diabetes” (Biomolecules, 2025).
“And” between values parts separate entries of the source, which are not always exact repeats. Equal values may be shown once. Read-outs that look alike come from different tables or passages of the source.

Experiments:
α-glucosidase [1] = target: T1, α-glucosidase (Saccharomyces cerevisiae, UniProt P53341); assay: Fluorescence quenching, binding and thermodynamics with α-glucosidase
How it was run: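 Enzyme at 400 U/L mixed 1:1 with porphyrins, held 30 min at 298, 304 and 310 K; excitation 280 nm, emission 300–500 nm, inner-filter corrected. Quenching constants from Stern–Volmer fits; ΔH^0, ΔS^0 and ΔG^0 from van't Hoff plot of lnKa versus 1/T.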

α-amylase [2] = target: T2, α-amylase (Sus scrofa, UniProt P00690); assay: FTIR secondary structure analysis of α-AMY complexes; settings: enzyme–porphyrin molar ratio 1:2, amide I band
T2 sequence (P00690 16-511): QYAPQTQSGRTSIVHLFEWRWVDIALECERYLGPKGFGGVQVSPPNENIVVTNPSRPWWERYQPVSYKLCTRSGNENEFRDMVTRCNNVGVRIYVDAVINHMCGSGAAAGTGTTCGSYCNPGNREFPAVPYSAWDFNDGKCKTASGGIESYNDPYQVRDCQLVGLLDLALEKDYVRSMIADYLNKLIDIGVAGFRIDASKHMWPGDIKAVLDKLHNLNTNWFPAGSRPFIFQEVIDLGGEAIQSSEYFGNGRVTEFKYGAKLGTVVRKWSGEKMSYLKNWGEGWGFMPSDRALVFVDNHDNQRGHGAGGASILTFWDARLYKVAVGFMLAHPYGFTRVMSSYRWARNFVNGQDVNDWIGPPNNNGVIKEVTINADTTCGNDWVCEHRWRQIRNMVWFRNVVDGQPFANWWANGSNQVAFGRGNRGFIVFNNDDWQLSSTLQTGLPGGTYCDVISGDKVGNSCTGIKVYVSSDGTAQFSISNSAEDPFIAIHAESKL
How it was run: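 Enzyme–porphyrin at 1:2 molar ratio was dried and pressed in KBr, then scanned at 4000–400 cm^−1 with 4 cm^−1 resolution. Secondary-structure content came from curve-fitting the amide I band (1700–1600 cm^−1) into sub-peaks.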

α-glucosidase [3] = target: T1, α-glucosidase; type: biochemical
α-amylase [4] = target: T2, α-amylase; assay: Fluorescence quenching, binding and thermodynamics with α-amylase
How it was run: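 Porcine α-amylase (200 U/L) mixed 1:1 with porphyrins, and intrinsic fluorescence quenching corrected for the inner-filter effect. KSV and Kq derived from linear or exponential Stern–Volmer fits with τ0 10^−8 s. ΔH^0, ΔS^0 and ΔG^0 obtained from Van't Hoff plots of lnKa against 1/T.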

α-amylase [5] = target: T2, α-amylase; assay: Three-dimensional fluorescence spectroscopy of α-amylase complexes; settings: 298 K; TAPP 2.5, THPP 10, TCPP 10, Fe–TCPP 12.5, Ni–TCPP 17.5, Cu–TCPP 10 μg/mL

T1 sequence (P53341 whole entry): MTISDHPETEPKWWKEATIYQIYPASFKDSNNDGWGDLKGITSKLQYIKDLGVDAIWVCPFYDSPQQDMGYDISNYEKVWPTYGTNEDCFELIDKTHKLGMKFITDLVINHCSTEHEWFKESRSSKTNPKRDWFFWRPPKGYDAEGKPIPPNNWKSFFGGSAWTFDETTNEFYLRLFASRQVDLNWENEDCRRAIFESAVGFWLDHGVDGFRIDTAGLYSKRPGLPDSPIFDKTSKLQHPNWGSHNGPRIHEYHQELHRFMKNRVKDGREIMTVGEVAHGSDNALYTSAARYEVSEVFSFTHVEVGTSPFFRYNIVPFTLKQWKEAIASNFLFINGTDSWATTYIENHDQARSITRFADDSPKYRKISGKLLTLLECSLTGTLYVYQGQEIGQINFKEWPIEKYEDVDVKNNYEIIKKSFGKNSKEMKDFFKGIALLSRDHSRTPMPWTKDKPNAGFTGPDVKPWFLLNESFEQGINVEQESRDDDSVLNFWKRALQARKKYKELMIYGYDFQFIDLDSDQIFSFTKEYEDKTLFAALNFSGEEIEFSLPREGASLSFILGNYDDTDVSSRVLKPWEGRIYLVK

`Nc1ccc(-c2c3nc(c(-c4ccc(N)cc4)c4ccc([nH]4)c(-c4ccc(N)cc4)c4nc(c(-c5ccc(N)cc5)c5ccc2[nH]5)C=C4)C=C3)cc1` [TAPP] was tested, and the “binding constants K” value (α-glucosidase [1]; 310 K) was “(0.65 ± 0.02) × 10^5 L·mol^−1”, the “quenching mechanism of α-glucosidase fluorescence” value (α-glucosidase [1]; Stern–Volmer plots, 298–310 K) was “static quenching” and the Kq (α-glucosidase [1]; T 298 K) was 6.25 ± 0.04 ×10^12 L/mol/s. For the same compound, the Ksv (α-glucosidase [1]; T 298 K) was 6.25 ± 0.04 ×10^4 L/mol, the “n (number of binding sites)” value (α-glucosidase [1]; T 298 K) was 1.14 and the “ΔG^0” value (α-glucosidase [1]; T 298 K) was -7.424 ± 0.019 kcal/mol. For the same compound, the Kq (α-glucosidase [1]; T 304 K) was 5.71 ± 0.01 ×10^12 L/mol/s, the Ksv (α-glucosidase [1]; T 304 K) was 5.71 ± 0.01 ×10^4 L/mol and the “n (number of binding sites)” value (α-glucosidase [1]; T 304 K) was 1.09. The “ΔG^0” value (α-glucosidase [1]; T 304 K) was -7.165 ± 0.012 kcal/mol, the Kq (α-glucosidase [1]; T 310 K) was 5.66 ± 0.02 ×10^12 L/mol/s and the Ksv (α-glucosidase [1]; T 310 K) was 5.66 ± 0.02 ×10^4 L/mol. The “n (number of binding sites)” value (α-glucosidase [1]; T 310 K) was 1.01, the “ΔG^0” value (α-glucosidase [1]; T 310 K) was -6.826 ± 0.012 kcal/mol and the “ΔH^0” value (α-glucosidase [1]; Van’t Hoff, 298–310 K) was -22.23 ± 0.019 kcal/mol. The “ΔS^0” value (α-glucosidase [1]; Van’t Hoff, 298–310 K) was −207.76 ± 0.14 J/mol/k, the “Random Coil” value (α-amylase [2]) was 9.94% and 9.94 ± 0.02% and the α-Helix (α-amylase [2]) was 22.45 ± 0.07%. For the same compound, the β-Antiparallel (α-amylase [2]) was 18.98% and 18.98 ± 0.04%, the β-Sheet (α-amylase [2]) was 14.62 ± 0.03% and the β-Turn (α-amylase [2]) was 34.00 ± 0.09%. For the same compound, the Vmax (α-glucosidase [3]; C 12.5 μg/mL) was 0.0791 ± 0.0021 ΔOD/min, the Vmax (α-glucosidase [3]; C 15 μg/mL) was 0.0767 ± 0.0013 ΔOD/min and the Vmax (α-glucosidase [3]; C 17.5 μg/mL) was 0.0736 ± 0.0015 ΔOD/min. For the same compound, the Vmax (α-glucosidase [3]; C 20 μg/mL) was 0.0711 ± 0.0011 ΔOD/min, the Vmax (α-glucosidase [3]; C 22.5 μg/mL) was 0.0688 ± 0.0012 ΔOD/min and the “type of inhibition of α-glucosidase” value (α-glucosidase [3]; Lineweaver–Burk plots) was “mixed type”. For the same compound, the “reversibility of inhibition of α-glucosidase” value (α-glucosidase [3]; enzyme 100–400 U/L, substrate 5 mmol/L) was “reversible inhibition”, the Kis (α-glucosidase [3]; enzyme–substrate complex inhibition constant) was 55.1227 ± 0.1247 µg/mL and the “quenching mechanism of α-amylase fluorescence” value (α-amylase [4]; Stern–Volmer plots, 298–310 K) was “pure static quenching”. For the same compound, the Kq (α-amylase [4]; T 298 K) was 4.07 ± 0.05 ×10^12 L/mol/s, the Ksv (α-amylase [4]; T 298 K) was 4.07 ± 0.05 ×10^4 L/mol and the “n (number of binding sites)” value (α-amylase [4]; T 298 K) was 1.48. The “ΔG^0” value (α-amylase [4]; T 298 K) was -9.168 ± 0.0263 kcal/mol, the Kq (α-amylase [4]; T 304 K) was 3.37 ± 0.02 ×10^12 L/mol/s and the Ksv (α-amylase [4]; T 304 K) was 3.37 ± 0.02 ×10^4 L/mol. For the same compound, the “n (number of binding sites)” value (α-amylase [4]; T 304 K) was 1.40, the “ΔG^0” value (α-amylase [4]; T 304 K) was -8.817 ± 0.0287 kcal/mol and the Kq (α-amylase [4]; T 310 K) was 3.07 ± 0.09 ×10^12 L/mol/s. For the same compound, the Ksv (α-amylase [4]; T 310 K) was 3.07 ± 0.09 ×10^4 L/mol, the “n (number of binding sites)” value (α-amylase [4]; T 310 K) was 1.31 and the “ΔG^0” value (α-amylase [4]; T 310 K) was -8.329 ± 0.0239 kcal/mol. For the same compound, the “ΔH^0” value (α-amylase [4]; Van’t Hoff, 298–310 K) was -29.935 ± 0.0287 kcal/mol, the “ΔS^0” value (α-amylase [4]; Van’t Hoff, 298–310 K) was −291.29 ± 0.12 J/mol/k and the “Peak 1 Fluorescence Intensity” value (α-amylase [5]) was 317.2. For the same compound, the “Peak 2 Fluorescence Intensity” value (α-amylase [5]) was 7.013.
